Test results taken from patent US20170233628A1, “ENZYME DES[…] DES[…] PRODUCING SULFUR CONTAINING COMPOUNDS IN DOWNHOLE FLUIDS” (BAKER HUGHES INCORPORATED, priority 2016, published 2017).

Test system: sulfur producing enzymes
Assay: H2S production (colour of sample) by sterile, enzyme-containing SRB supernatant after treatment with inhibitors
Assay type: biochemical, sulfate-reducing bacteria (SRBs) from produced water sources
Settings: sterile enzyme-containing supernatant in LB, 3 months at 37° C.
Method: Now turning to the Figures, FIG. 1 illustrates the ability of sterile solutions to produce hydrogen sulfide (H2S). Six samples were formed with the following procedure. Each sample includes 100 mL of lysogeny broth (LB) ([…] Tryptone, 5 mg/ml yeast extract, 5 mg/mL NaCl, pH 7.5). Sample A is the blank sample, i.e. no sulfur metabolizing enzymes were added. Samples B-D include 0.5 mL of cultured sulfate-reducing bacteria (SRBs) from produced water sources. […]
Sample E includes 0.5 mL of supernatant after the same cultured SRBs were additionally sonicated. A QSonic sonicator sonicated the cultured SRBs for one minute cycles at 70% amplitude. The cell debris was removed via centrifugation at 3000 RPM for 25 minutes. 0.5 mL of the remaining supernatant was added to Sample E.
The remaining supernatant was filtered through a […] pore size PVDF membrane. […]
Samples 1-9 included the same components as that of Sample F from Example 1, i.e. 0.5 mL of the sterile, enzyme-containing, supernatant. […] Samples 1-9 were incubated at 37° C. and monitored periodically. […]

| SMILES | inactivation of sulfur producing enzymes |
| --- | --- |
| NC(=O)CI [Iodoacetamide, iodoacetamide] | effective in permanently inactivating enzymes |
| CCCCCCCCCCCCOS(=O)(=O)[O-].[Na+] [SDS, sodium dodecyl sulfate] | effective in permanently inactivating enzymes |
